Measured values published in patent US6214872A, “Aryloxyarylsulfonylamino hydroxamic acid derivatives” (Pfizer Inc., priority 1999, dated 2001).
Values joined by “and” are separate entries in the source; they are usually repeats but may differ in a detail not shown here. Equal values may be shown once.

Legend:
[1] = target: Human recombinant MMP-13 (collagenase 3) (Homo sapiens, UniProt P45452); test: Inhibition of MMP-13; format: biochemical; conditions: human recombinant MMP-13, fluorogenic substrate
Method: Human recombinant MMP-13 is activated with 2 mM APMA (p-aminophenyl mercuric acetate) for 1.5 hours, at 37° C. and is diluted to […] in assay buffer (50 mM Tris, pH 7.5, 200 mM sodium chloride, 5 mM calcium chloride, […], 0.02% brij). Twenty-five microliters of diluted enzyme is added per well of a 96 well microfluor plate. The enzyme is then diluted in a 1:4 ratio in the assay by the addition of inhibitor and substrate to give a final concentration in the assay of […]. 10 mM stock solutions of inhibitors are made up in dimethyl sulfoxide and then diluted in assay buffer as per the inhibitor dilution scheme for inhibition of human collagenase (MMP-1): Twenty-five microliters of each concentration is added in triplicate to the microfluor plate. The final concentrations in the assay are 30 mM, 3 mM, 0.3 mM, and 0.03 mM. Substrate ([…]) is prepared as for inhibition of human collagenase (MMP-1) and […] is added to each well to give a final assay concentration of 10 mM. Fluorescence readings (360 nm excitation; 450 emission) are taken at time 0 and every 5 minutes for 1 hour. Positive controls consist of enzyme and substrate with no inhibitor and blanks consist of substrate only. IC50 's are determined as per inhibition of human collagenase (MMP-1). If IC50 's are reported to be less than […], inhibitors are then assayed at final concentrations of 0.3 mM, 0.03 mM, 0.003 mM and 0.0003 mM.

[2] = target: T1, Human Collagenase (MMP-1) (Homo sapiens, UniProt P03956); test: Inhibition of Human Collagenase (MMP-1); format: biochemical; conditions: Table 1; human recombinant collagenase, fluorogenic substrate, room temperature
T1 sequence (P03956 100-469): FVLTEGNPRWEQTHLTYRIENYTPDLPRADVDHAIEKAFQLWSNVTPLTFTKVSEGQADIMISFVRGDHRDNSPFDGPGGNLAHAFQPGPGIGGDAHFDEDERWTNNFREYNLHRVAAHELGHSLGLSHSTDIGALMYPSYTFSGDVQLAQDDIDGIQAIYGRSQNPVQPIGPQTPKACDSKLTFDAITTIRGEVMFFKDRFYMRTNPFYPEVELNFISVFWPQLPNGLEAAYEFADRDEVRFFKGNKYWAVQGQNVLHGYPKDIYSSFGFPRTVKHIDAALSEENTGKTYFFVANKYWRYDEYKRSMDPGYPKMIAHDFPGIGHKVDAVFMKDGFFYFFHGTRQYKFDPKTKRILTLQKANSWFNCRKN
Method: Human recombinant collagenase is activated with trypsin using the following ratio: 10 mg trypsin per 100 mg of collagenase. The trypsin and collagenase are incubated at room temperature for 10 minutes then a five fold excess (50 mg/10 mg trypsin) of soybean trypsin inhibitor is added. 10 mM stock solutions of inhibitors are made up in dimethyl sulfoxide and then diluted using the following Scheme: 10 mM→120 μM→12 μM→1.2 μM→0.12 μM Twenty-five microliters of each concentration is then added in triplicate to appropriate wells of a 96 well microfluor plate. The final concentration of inhibitor will be a 1:4 dilution after addition of enzyme and substrate. Positive controls (enzyme, no inhibitor) are set up in wells D1-D6 and blanks (no enzyme, no inhibitors) are set in wells D7-D12. Collagenase is diluted to 400 ng/ml and […] is then added to appropriate wells of the microfluor plate. Final concentration of collagenase in the assay is 100 ng/ml. Substrate ([…]) is made as a 5 mM stock in dimethyl sulfoxide and then diluted to […] in assay buffer. The assay is initiated by the addition of […] substrate per well of the microfluor plate to give a final concentration of 10 mM. Fluorescence readings (360 nm excitation, 460 nm emission) were taken at time 0 and then at 20 minute intervals. The assay is conducted at room temperature with a typical assay time of 3 hours. Fluorescence vs time is then plotted for both the blank and collagenase containing samples (data from triplicate determinations is averaged). […] The zero time is used as a blank for each compound at each concentration and these values are subtracted from the 120 minute data. Data is plotted as inhibitor concentration vs % control (inhibitor fluorescence divided by fluorescence of collagenase alone×100). IC50 's are determined from the concentration of inhibitor that gives a signal that is 50% of the control. If IC50 's are reported to be <0.03 mM then the inhibitors are assayed at concentrations of 0.3 mM, 0.03 mM, […] and 0.003 mM.

| SMILES | IC50 [1] | IC50 [2] |
| --- | --- | --- |
| COc1ccc(S(=O)(=O)N(CCC(=O)O)C2(C(=O)NO)CCCC2)cc1 [cyclopentyl, --, hydrogen, methoxy] | 21 nM and 25 nM | 800 nM and 700 nM |
| COc1ccc(S(=O)(=O)N(CCC(=O)O)C(C(=O)NO)C2CCCCC2)cc1 (centres unmarked) [cyclohexyl, hydrogen, hydrogen, methoxy] | 4 nM and 2 nM | 18 nM and 22 nM |
| COc1ccc(S(=O)(=O)N(CCC(=O)O)C(C)(C)C(=O)NO)cc1 [methyl, methyl, hydrogen, methoxy] | 590 nM and 730 nM | 12000 nM |
| CCOC(=O)CCN(C1(C(=O)NO)CCCC1)S(=O)(=O)c1ccc(Oc2ccc(F)cc2)cc1 [Example 1, 3-[[4-(4-FLUOROPHENOXY)BENZENESULFONYL]-(1-HYDROXY-CARBAMOYL CYCLOPENTYL)AMINO]-PROPIONIC ACID ETHYL ESTER] | 0.9 nM | 100 nM |
